{"source": "patent US8877814B2", "about": "“Titration package for neramexane and its use in the treatment of an inner ear disorder” (Merz Pharma GmbH & Co. KGaA, priority 2007, dated 2014)", "key": {"[1]": {"test_system": "patients afflicted with various degrees of hearing loss", "test": "Double blind placebo controlled pilot trial of neramexane for treatment of hearing loss", "type": "in vivo, human", "conditions": "neramexane mesylate up to 75 mg/d, compared to the placebo group", "experimental": "A hearing threshold level may be defined as the average of the pure tone hearing threshold levels at testing frequencies of 0.25, 0.5, 1, 2 and 4 kHz.\nThe primary objective of this study is to investigate the safety and efficacy of neramexane mesylate at daily doses of up to 75 mg in the treatment of hearing loss in comparison to placebo.\nNeramexane mesylate (or placebo) is uptitrated to a maximum daily dose of 75 mg, starting with a daily dose of 25 mg for one week, and increasing dosage in 25 mg steps at weekly intervals.\nTreatment is started in the evening of study day 1. The daily starting dose is 25 mg neramexane mesylate per dose to be taken for 7 days at bedtime. […]\nPrimary Outcome • Change from baseline in hearing threshold level of left/right ear (dB) calculated as average of the pure tone hearing level threshold levels at 0.25, 0.5, 1, 2 and 4 kHz.\nSecondary Outcomes • Change from baseline in high frequency hearing threshold of left/right ear (dB) calculated as average of the pure tone hearing threshold levels at 4, 6, 8 and 10 kHz • Change from baseline in individual frequencies (hearing thresholds) on a pure tone audiogram (air conduction) • Number of Responder • Patient-reported outcome on a 11-point Likert-Scale (0=hearing is not a problem, 10=hearing is a problem as much as possible) • Change in hearing impairment based on the hearing threshold level: […]"}, "5-HT3 receptors": {"test_system": "5-HT3 receptors", "conditions": "cited from earlier work"}, "[2]": {"test_system": "subjects with subjective tinnitus of at least moderate severity", "test": "Double blind placebo controlled pilot trial of neramexane for tinnitus: treatment emergent adverse events leading to drop-out", "procedure": "The primary objective of this study was to compare the efficacy, tolerability and safety of neramexane mesylate at three different dosages (25, 50 or 75 mg/d) with placebo in subjects with subjective tinnitus of at least moderate severity.\nIn a double-blind, multicenter, randomized, placebo-controlled, parallel-group study, the efficacy of neramexane in subjects suffering from tinnitus of at least moderate severity was assessed. Approximately 100 patients, who fulfilled particular inclusion criteria and met none of particular exclusion criteria, were randomized to each of four double-blind treatment groups (neramexane mesylate 25, 50, 75 mg/d or placebo), resulting in approximately 400 patients in total.\nThe double-blind, 16-week treatment period consisted of a 4-week uptitration period and a 12-week fixed-dose treatment period at unchanged maintenance b.i.d. dosing. In case of poor tolerability, however, the investigator could consider a dose reduction by 25 mg/d (or placebo, respectively). […] In total, this study involved seven study visits: screening, baseline, and at the end of weeks 4, 8, 12, 16, and 20. (Participants received either neramexane mesylate (e.g. 50 mg, as 25 mg immediate release tablets given twice daily) or placebo twice daily for 16 weeks. Neramexane mesylate was uptitrated in weekly steps of 12.5 or 25 mg during a 4-week uptitration period preceding the fixed-dose 12-week treatment period. Treatment was followed by a four week follow-up period.)\nNeramexane mesylate immediate release tablets (12.5 mg and 25 mg) and matching placebo tablets were administered as film coated tablets.\nStudy medication was dispensed at Visit 2 (baseline, day 0). Each patient received one blister box containing 5 blister cards (including one reserve blister) of double-blind study medication (i.e., 32 tablets). Subjects were instructed to take 2 tablets twice daily (4 tablets/d), beginning the day after dispensing of the study medication, until they returned for their next study visit (Visit 3). For those subjects assigned to receive active medication, some placebo tablets were incorporated into the dosing regimen to ensure blinding during the uptitration period. The target fixed-maintenance dose of 25, 50, or 75 mg/d was administered starting with the fifth week of double-blind treatment and was continued throughout the study. At each of the subsequent visits (Visits 3, 4, and 5, corresponding to end of week 4, 8 and 12) patients received another blister box containing 5 blister cards for the 4 week intervals, with double-blind medication for the intervening treatment period until the next study visit.\nIn case of poor tolerability the investigator could consider a dose reduction of 25 mg/d by omitting the bigger tablet in the morning which constituted an effective dose reduction only in the 75 mg/d and 50 mg/d neramexane mesylate groups. After omitting the bigger tablet (25 mg or placebo, respectively) of the morning dose, these patients could then continue the course of the study as scheduled, while receiving only one smaller tablet as the morning dose (12.5 mg or placebo, respectively) and 2 tablets of different sizes (12.5 mg, 25 mg or placebo, respectively) as the evening dose. The dose was to be kept stable until the end of the study."}, "α 9/α 10 nicotinic": {"target": "α 9/α 10 nicotinic (Rattus norvegicus, UniProt P43144+Q9JLB5)", "sequence (P43144 26-479)": "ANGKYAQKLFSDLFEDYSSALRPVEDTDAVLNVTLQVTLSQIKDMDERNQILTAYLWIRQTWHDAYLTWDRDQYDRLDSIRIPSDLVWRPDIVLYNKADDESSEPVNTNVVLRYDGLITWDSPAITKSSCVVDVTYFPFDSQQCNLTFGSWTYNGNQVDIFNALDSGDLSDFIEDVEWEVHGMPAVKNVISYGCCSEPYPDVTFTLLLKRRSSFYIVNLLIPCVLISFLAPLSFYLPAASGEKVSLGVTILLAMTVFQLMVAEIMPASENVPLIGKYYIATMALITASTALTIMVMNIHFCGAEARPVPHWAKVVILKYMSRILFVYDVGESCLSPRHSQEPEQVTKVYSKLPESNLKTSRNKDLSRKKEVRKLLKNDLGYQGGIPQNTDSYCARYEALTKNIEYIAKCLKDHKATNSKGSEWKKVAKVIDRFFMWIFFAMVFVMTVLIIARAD", "sequence (Q9JLB5 25-447)": "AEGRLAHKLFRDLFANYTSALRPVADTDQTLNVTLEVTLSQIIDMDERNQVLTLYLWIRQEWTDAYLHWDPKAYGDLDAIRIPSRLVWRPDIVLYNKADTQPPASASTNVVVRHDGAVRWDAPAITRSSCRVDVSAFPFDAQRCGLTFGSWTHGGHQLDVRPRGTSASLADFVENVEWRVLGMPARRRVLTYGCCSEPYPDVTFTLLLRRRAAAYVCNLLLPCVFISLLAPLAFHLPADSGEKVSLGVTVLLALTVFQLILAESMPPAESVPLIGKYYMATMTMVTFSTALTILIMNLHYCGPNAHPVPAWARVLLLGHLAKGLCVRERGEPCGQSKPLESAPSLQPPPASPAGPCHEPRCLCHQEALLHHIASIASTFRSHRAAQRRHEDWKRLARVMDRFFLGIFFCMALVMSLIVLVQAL", "conditions": "Plazas et al., Eur J. Pharmacol. 2007; cited from earlier work"}}}
{"molecule": "CC1(C)CC(C)(C)CC(C)(N)C1", "note": "[Neramexane, 1-amino-1,3,3,5,5-pentamethylcyclohexane]", "values": [{"measurement": "Primary outcome: change from baseline in hearing threshold level", "setting": "[1]", "value": "improvement"}, {"measurement": "Secondary outcomes (e.g. change from baseline in different frequencies on a pure tone audiogram)", "setting": "[1]", "value": "improvement"}, {"measurement": "activity at 5-HT3 receptors", "setting": "5-HT3 receptors", "value": "exhibit activity"}, {"measurement": "Any adverse event leading to drop-out, % of patients", "setting": "[2]; 25 mg/d, N = 108, EFS", "value": "(8.3) %"}, {"measurement": "Any adverse event leading to drop-out, n (number of patients)", "setting": "[2]; 25 mg/d, N = 108, EFS", "value": 9}, {"measurement": "Cardiovascular disorder leading to drop-out, % of patients", "setting": "[2]; 25 mg/d, N = 108, EFS", "value": "(0.0) %"}, {"measurement": "Cardiovascular disorder leading to drop-out, n (number of patients)", "setting": "[2]; 25 mg/d, N = 108, EFS", "value": 0}, {"measurement": "Depression leading to drop-out, % of patients", "setting": "[2]; 25 mg/d, N = 108, EFS", "value": "(0.9) %"}, {"measurement": "Depression leading to drop-out, n (number of patients)", "setting": "[2]; 25 mg/d, N = 108, EFS", "value": 1}, {"measurement": "Dizziness leading to drop-out, % of patients", "setting": "[2]; 25 mg/d, N = 108, EFS", "value": "(1.9) %"}, {"measurement": "Dizziness leading to drop-out, n (number of patients)", "setting": "[2]; 25 mg/d, N = 108, EFS", "value": 2}, {"measurement": "Fatigue leading to drop-out, % of patients", "setting": "[2]; 25 mg/d, N = 108, EFS", "value": "(0.0) %"}, {"measurement": "Fatigue leading to drop-out, n (number of patients)", "setting": "[2]; 25 mg/d, N = 108, EFS", "value": 0}, {"measurement": "Headache leading to drop-out, % of patients", "setting": "[2]; 25 mg/d, N = 108, EFS", "value": "(0.0) %"}, {"measurement": "Headache leading to drop-out, n (number of patients)", "setting": "[2]; 25 mg/d, N = 108, EFS", "value": 0}, {"measurement": "Hyperhidrosis leading to drop-out, % of patients", "setting": "[2]; 25 mg/d, N = 108, EFS", "value": "(0.0) %"}, {"measurement": "Hyperhidrosis leading to drop-out, n (number of patients)", "setting": "[2]; 25 mg/d, N = 108, EFS", "value": 0}, {"measurement": "Nausea leading to drop-out, % of patients", "setting": "[2]; 25 mg/d, N = 108, EFS", "value": "(0.0) %"}, {"measurement": "Nausea leading to drop-out, n (number of patients)", "setting": "[2]; 25 mg/d, N = 108, EFS", "value": 0}, {"measurement": "Paresthesia leading to drop-out, % of patients", "setting": "[2]; 25 mg/d, N = 108, EFS", "value": "(0.0) %"}, {"measurement": "Paresthesia leading to drop-out, n (number of patients)", "setting": "[2]; 25 mg/d, N = 108, EFS", "value": 0}, {"measurement": "Tinnitus leading to drop-out, % of patients", "setting": "[2]; 25 mg/d, N = 108, EFS", "value": "(1.9) %"}, {"measurement": "Tinnitus leading to drop-out, n (number of patients)", "setting": "[2]; 25 mg/d, N = 108, EFS", "value": 2}, {"measurement": "Vertigo leading to drop-out, % of patients", "setting": "[2]; 25 mg/d, N = 108, EFS", "value": "(0.0) %"}, {"measurement": "Vertigo leading to drop-out, n (number of patients)", "setting": "[2]; 25 mg/d, N = 108, EFS", "value": 0}, {"measurement": "Visual acuity reduced leading to drop-out, % of patients", "setting": "[2]; 25 mg/d, N = 108, EFS", "value": "(0.0) %"}, {"measurement": "Visual acuity reduced leading to drop-out, n (number of patients)", "setting": "[2]; 25 mg/d, N = 108, EFS", "value": 0}, {"measurement": "Any adverse event leading to drop-out, % of patients", "setting": "[2]; 50 mg/d, N = 107, EFS", "value": "(21.5) %"}, {"measurement": "Any adverse event leading to drop-out, n (number of patients)", "setting": "[2]; 50 mg/d, N = 107, EFS", "value": 23}, {"measurement": "Cardiovascular disorder leading to drop-out, % of patients", "setting": "[2]; 50 mg/d, N = 107, EFS", "value": "(1.9) %"}, {"measurement": "Cardiovascular disorder leading to drop-out, n (number of patients)", "setting": "[2]; 50 mg/d, N = 107, EFS", "value": 2}, {"measurement": "Depression leading to drop-out, % of patients", "setting": "[2]; 50 mg/d, N = 107, EFS", "value": "(1.9) %"}, {"measurement": "Depression leading to drop-out, n (number of patients)", "setting": "[2]; 50 mg/d, N = 107, EFS", "value": 2}, {"measurement": "Dizziness leading to drop-out, % of patients", "setting": "[2]; 50 mg/d, N = 107, EFS", "value": "(5.6) %"}, {"measurement": "Dizziness leading to drop-out, n (number of patients)", "setting": "[2]; 50 mg/d, N = 107, EFS", "value": 6}, {"measurement": "Fatigue leading to drop-out, % of patients", "setting": "[2]; 50 mg/d, N = 107, EFS", "value": "(1.9) %"}, {"measurement": "Fatigue leading to drop-out, n (number of patients)", "setting": "[2]; 50 mg/d, N = 107, EFS", "value": 2}, {"measurement": "Headache leading to drop-out, % of patients", "setting": "[2]; 50 mg/d, N = 107, EFS", "value": "(0.9) %"}, {"measurement": "Headache leading to drop-out, n (number of patients)", "setting": "[2]; 50 mg/d, N = 107, EFS", "value": 1}, {"measurement": "Hyperhidrosis leading to drop-out, % of patients", "setting": "[2]; 50 mg/d, N = 107, EFS", "value": "(0.0) %"}, {"measurement": "Hyperhidrosis leading to drop-out, n (number of patients)", "setting": "[2]; 50 mg/d, N = 107, EFS", "value": 0}, {"measurement": "Nausea leading to drop-out, % of patients", "setting": "[2]; 50 mg/d, N = 107, EFS", "value": "(1.9) %"}, {"measurement": "Nausea leading to drop-out, n (number of patients)", "setting": "[2]; 50 mg/d, N = 107, EFS", "value": 2}, {"measurement": "Paresthesia leading to drop-out, % of patients", "setting": "[2]; 50 mg/d, N = 107, EFS", "value": "(1.9) %"}, {"measurement": "Paresthesia leading to drop-out, n (number of patients)", "setting": "[2]; 50 mg/d, N = 107, EFS", "value": 2}, {"measurement": "Tinnitus leading to drop-out, % of patients", "setting": "[2]; 50 mg/d, N = 107, EFS", "value": "(0.0) %"}, {"measurement": "Tinnitus leading to drop-out, n (number of patients)", "setting": "[2]; 50 mg/d, N = 107, EFS", "value": 0}, {"measurement": "Vertigo leading to drop-out, % of patients", "setting": "[2]; 50 mg/d, N = 107, EFS", "value": "(3.7) %"}, {"measurement": "Vertigo leading to drop-out, n (number of patients)", "setting": "[2]; 50 mg/d, N = 107, EFS", "value": 4}, {"measurement": "Visual acuity reduced leading to drop-out, % of patients", "setting": "[2]; 50 mg/d, N = 107, EFS", "value": "(0.0) %"}, {"measurement": "Visual acuity reduced leading to drop-out, n (number of patients)", "setting": "[2]; 50 mg/d, N = 107, EFS", "value": 0}, {"measurement": "Any adverse event leading to drop-out, % of patients", "setting": "[2]; 75 mg/d, N = 102, EFS", "value": "(28.4) %"}, {"measurement": "Any adverse event leading to drop-out, n (number of patients)", "setting": "[2]; 75 mg/d, N = 102, EFS", "value": 29}, {"measurement": "Cardiovascular disorder leading to drop-out, % of patients", "setting": "[2]; 75 mg/d, N = 102, EFS", "value": "(0.0) %"}, {"measurement": "Cardiovascular disorder leading to drop-out, n (number of patients)", "setting": "[2]; 75 mg/d, N = 102, EFS", "value": 0}, {"measurement": "Depression leading to drop-out, % of patients", "setting": "[2]; 75 mg/d, N = 102, EFS", "value": "(0.0) %"}, {"measurement": "Depression leading to drop-out, n (number of patients)", "setting": "[2]; 75 mg/d, N = 102, EFS", "value": 0}, {"measurement": "Dizziness leading to drop-out, % of patients", "setting": "[2]; 75 mg/d, N = 102, EFS", "value": "(14.7) %"}, {"measurement": "Dizziness leading to drop-out, n (number of patients)", "setting": "[2]; 75 mg/d, N = 102, EFS", "value": 15}, {"measurement": "Fatigue leading to drop-out, % of patients", "setting": "[2]; 75 mg/d, N = 102, EFS", "value": "(2.0) %"}, {"measurement": "Fatigue leading to drop-out, n (number of patients)", "setting": "[2]; 75 mg/d, N = 102, EFS", "value": 2}, {"measurement": "Headache leading to drop-out, % of patients", "setting": "[2]; 75 mg/d, N = 102, EFS", "value": "(2.0) %"}, {"measurement": "Headache leading to drop-out, n (number of patients)", "setting": "[2]; 75 mg/d, N = 102, EFS", "value": 2}, {"measurement": "Hyperhidrosis leading to drop-out, % of patients", "setting": "[2]; 75 mg/d, N = 102, EFS", "value": "(2.0) %"}, {"measurement": "Hyperhidrosis leading to drop-out, n (number of patients)", "setting": "[2]; 75 mg/d, N = 102, EFS", "value": 2}, {"measurement": "Nausea leading to drop-out, % of patients", "setting": "[2]; 75 mg/d, N = 102, EFS", "value": "(2.0) %"}, {"measurement": "Nausea leading to drop-out, n (number of patients)", "setting": "[2]; 75 mg/d, N = 102, EFS", "value": 2}, {"measurement": "Paresthesia leading to drop-out, % of patients", "setting": "[2]; 75 mg/d, N = 102, EFS", "value": "(0.0) %"}, {"measurement": "Paresthesia leading to drop-out, n (number of patients)", "setting": "[2]; 75 mg/d, N = 102, EFS", "value": 0}, {"measurement": "Tinnitus leading to drop-out, % of patients", "setting": "[2]; 75 mg/d, N = 102, EFS", "value": "(1.0) %"}, {"measurement": "Tinnitus leading to drop-out, n (number of patients)", "setting": "[2]; 75 mg/d, N = 102, EFS", "value": 1}, {"measurement": "Vertigo leading to drop-out, % of patients", "setting": "[2]; 75 mg/d, N = 102, EFS", "value": "(2.9) %"}, {"measurement": "Vertigo leading to drop-out, n (number of patients)", "setting": "[2]; 75 mg/d, N = 102, EFS", "value": 3}, {"measurement": "Visual acuity reduced leading to drop-out, % of patients", "setting": "[2]; 75 mg/d, N = 102, EFS", "value": "(2.0) %"}, {"measurement": "Visual acuity reduced leading to drop-out, n (number of patients)", "setting": "[2]; 75 mg/d, N = 102, EFS", "value": 2}, {"measurement": "activity at the α 9/α 10 nicotinic receptors", "setting": "α 9/α 10 nicotinic", "value": "exhibit activity"}]}
